This passage reports IC50 results from US20090018134A1, “Compounds - 945” (AstraZeneca AB, priority 2007, published 2009).

T1 sequence (P42345 1362-2549): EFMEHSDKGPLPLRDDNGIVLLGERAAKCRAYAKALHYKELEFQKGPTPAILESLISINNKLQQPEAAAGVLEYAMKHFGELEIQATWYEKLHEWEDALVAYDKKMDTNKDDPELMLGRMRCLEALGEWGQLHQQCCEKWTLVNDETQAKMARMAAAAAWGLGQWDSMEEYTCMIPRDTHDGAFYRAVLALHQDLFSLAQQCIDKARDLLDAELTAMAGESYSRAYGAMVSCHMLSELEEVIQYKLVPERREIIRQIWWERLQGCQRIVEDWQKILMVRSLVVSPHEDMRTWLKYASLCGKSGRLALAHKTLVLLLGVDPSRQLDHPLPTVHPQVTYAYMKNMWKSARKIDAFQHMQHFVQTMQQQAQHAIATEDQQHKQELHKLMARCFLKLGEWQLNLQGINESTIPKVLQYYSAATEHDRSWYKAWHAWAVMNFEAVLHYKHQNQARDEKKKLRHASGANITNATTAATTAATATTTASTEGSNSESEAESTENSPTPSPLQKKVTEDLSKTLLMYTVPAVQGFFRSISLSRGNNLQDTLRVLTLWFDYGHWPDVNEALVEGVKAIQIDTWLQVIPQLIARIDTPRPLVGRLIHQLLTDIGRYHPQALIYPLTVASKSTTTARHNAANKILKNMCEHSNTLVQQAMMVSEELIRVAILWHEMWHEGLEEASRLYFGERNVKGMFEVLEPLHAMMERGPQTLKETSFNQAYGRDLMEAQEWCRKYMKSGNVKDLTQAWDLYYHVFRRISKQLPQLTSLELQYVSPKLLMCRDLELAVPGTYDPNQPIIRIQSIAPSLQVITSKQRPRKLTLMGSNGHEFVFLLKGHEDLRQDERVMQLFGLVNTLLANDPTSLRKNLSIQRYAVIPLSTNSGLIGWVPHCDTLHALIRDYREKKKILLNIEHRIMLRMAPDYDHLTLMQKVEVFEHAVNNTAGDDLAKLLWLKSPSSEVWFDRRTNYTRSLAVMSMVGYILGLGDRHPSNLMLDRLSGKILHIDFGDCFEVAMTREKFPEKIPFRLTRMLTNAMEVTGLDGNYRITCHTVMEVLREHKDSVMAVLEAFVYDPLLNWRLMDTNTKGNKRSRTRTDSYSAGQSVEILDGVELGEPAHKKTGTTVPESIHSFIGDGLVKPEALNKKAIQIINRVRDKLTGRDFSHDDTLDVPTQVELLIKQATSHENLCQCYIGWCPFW

The experiment has as its target T1, mTOR (Homo sapiens, UniProt P42345).
T1 construct: FLAG; made in house
The experiment in a line: In Vitro mTOR Kinase Assay (Echo), Test (a)(ii). The class given is biochemical. The conditions noted are these: table of enzyme assay Test (a)(ii); read-out: Test (a)(ii) IC50. A digest of the protocol: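 Compounds were acoustically dispensed, then incubated with FLAG-tagged mTOR (1362-2549) for 2 hours at room temperature. Reactions were quenched with EDTA plus detection antibody and AlphaScreen beads and left overnight in the dark before reading. Loss of phospho-T389 signal gave IC50 values.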
In the case of `C[C@H]1COCCN1c1cc(C2(S(=O)(=O)C3CC3)CCOCC2)nc(-c2ccc(NC(=O)Nc3cnn(C)c3)cc2)n1` [Example 23i, 1-[4-[4-(4-cyclopropylsulfonyloxan-4-yl)-6-[(3S)-3-methylmorpholin-4-yl]pyrimidin-2-yl]phenyl]-3-(1-methylpyrazol-4-yl)urea], the IC50 came to 25.4 nM.

`CNC(=O)Nc1ccc(-c2nc(N3CCOC[C@@H]3C)cc(C3(S(=O)(=O)c4ccc(Cl)cc4)CCOCC3)n2)cc1` [Example 23j, 1-[4-[4-[4-(4-chlorophenyl)sulfonyloxan-4-yl]-6-[(3S)-3-methylmorpholin-4-yl]pyrimidin-2-yl]phenyl]-3-methylurea]: the IC50 was 31.4 nM.

Consider `C[C@H]1COCCN1c1cc(C2(S(=O)(=O)c3ccc(Cl)cc3)CCOCC2)nc(-c2ccc(NC(=O)NCCN(C)C)cc2)n1` [Example 23k, 1-[4-[4-[4-(4-chlorophenyl)sulfonyloxan-4-yl]-6-[(3S)-3-methylmorpholin-4-yl]pyrimidin-2-yl]phenyl]-3-(2-dimethylaminoethyl)urea], for which the IC50 stood at 1140 nM.

With `C[C@H]1COCCN1c1cc(C2(S(=O)(=O)c3ccc(Cl)cc3)CCOCC2)nc(-c2ccc(NC(=O)NCCO)cc2)n1` [Example 23l, 1-[4-[4-[4-(4-chlorophenyl)sulfonyloxan-4-yl]-6-[(3S)-3-methylmorpholin-4-yl]pyrimidin-2-yl]phenyl]-3-(2-hydroxyethyl)urea], the IC50 was found to be 8.88 nM.

On to `C[C@H]1COCCN1c1cc(C2(S(=O)(=O)c3ccc(Cl)cc3)CCOCC2)nc(-c2ccc(NC(=O)Nc3cnn(C)c3)cc2)n1` [Example 23m, 1-[4-[4-[4-(4-chlorophenyl)sulfonyloxan-4-yl]-6-[(3S)-3-methylmorpholin-4-yl]pyrimidin-2-yl]phenyl]-3-(1-methylpyrazol-4-yl)urea], for which the IC50 came out at 57.7 nM.

Regarding `C[C@H]1COCCN1c1cc(C2(S(=O)(=O)c3ccc(Cl)cc3)CCOCC2)nc(-c2ccc(NC(=O)NC3CC3)cc2)n1` [Example 24, 1-[4-[4-[4-(4-Chlorophenyl)sulfonyloxan-4-yl]-6-[(3S)-3-methylmorpholin-4-yl]pyrimidin-2-yl]phenyl]-3-cyclopropylurea], the IC50 was 5.17 nM.

For the compound `Cc1csc(S(=O)(=O)C2(c3cc(N4CCOC[C@@H]4C)nc(-c4ccc(NC(=O)NC5CC5)cc4)n3)CC2)n1` [Example 25, 3-Cyclopropyl-1-[4-[4-[(3S)-3-methylmorpholin-4-yl]-6-[1-[(4-methyl-1,3-thiazol-2-yl)sulfonyl]cyclopropyl]pyrimidin-2-yl]phenyl]urea], the half-inhibitory concentration (IC50) is 1.55 nM.

Turning to `Cc1csc(S(=O)(=O)C2(c3cc(N4CCOC[C@@H]4C)nc(-c4ccc(NC(=O)NC5CCC5)cc4)n3)CC2)n1` [Example 25a, 3-cyclobutyl-1-[4-[4-[(3S)-3-methylmorpholin-4-yl]-6-[1-[(4-methyl-1,3-thiazol-2-yl)sulfonyl]cyclopropyl]pyrimidin-2-yl]phenyl]urea], the IC50 was 2.24 nM.

`Cc1csc(S(=O)(=O)C2(c3cc(N4CCOC[C@@H]4C)nc(-c4ccc(NC(=O)Nc5ccccn5)cc4)n3)CC2)n1` [Example 25b, 1-[4-[4-[(3S)-3-methylmoprholin-4-yl]-6-[1-[(4-methyl-1,3-thiazol-2-yl)sulfonyl]cyclopropyl]pyrimidin-2-yl]phenyl]-3-pyridin-2-ylurea]: the 50% inhibitory concentration (IC50) stood at 0.817 nM.

Turning to `Cc1csc(S(=O)(=O)C2(c3cc(N4CCOC[C@@H]4C)nc(-c4ccc(NC(=O)NCC(C)C)cc4)n3)CC2)n1` [Example 25c, 1-[4-[4-[(3S)-3-methylmorpholin-4-yl]-6-[1-[(4-methyl-1,3-thiazol-2-yl)sulfonyl]cyclopropyl]pyrimidin-2-yl]phenyl]-3-(2-methylpropyl)urea], the IC50 was found to be 3.85 nM.

On to `CCNC(=O)Nc1ccc(-c2nc(N3CCOC[C@@H]3C)cc(C3(S(=O)(=O)c4nc(C)cs4)CC3)n2)cc1` [Example 25e, 1-ethyl-3-[4-[4-[(3S)-3-methylmorpholin-4-yl]-6-[1-[(4-methyl-1,3-thiazol-2-yl)sulfonyl]cyclpropyl]pyrimidin-2-yl]phenyl]urea], for which the IC50 is 0.277 nM.

Turning to `Cc1csc(S(=O)(=O)C2(c3cc(N4CCOC[C@@H]4C)nc(-c4ccc(NC(=O)NCCN(C)C)cc4)n3)CC2)n1` [Example 25f, 3-(2-dimethylaminoethyl)-1-[4-[4-[(3S)-3-methylmorpholin-4-yl]-6-[1-[(4-methyl-1,3-thiazol-2-yl)sulfonyl]cyclopropyl]pyrimidin-2-yl]phenyl]urea], the half-maximal inhibitory concentration (IC50) stood at 54.7 nM.

With `CCCNC(=O)Nc1ccc(-c2nc(N3CCOC[C@@H]3C)cc(C3(S(=O)(=O)c4nc(C)cs4)CC3)n2)cc1` [Example 25h, 3-[4-[4-[(3S)-3-methylmorpholin-4-yl]-6-[1-[(4-methyl-1,3-thiazol-2-yl)sulfonyl]cyclopropyl]pyrimidin-2-yl]phenyl]-1-propylurea], the IC50 amounted to 0.993 nM.

As for `CNC(=O)Nc1ccc(-c2nc(N3CCOC[C@@H]3C)cc(C3(S(=O)(=O)c4nc(C)cs4)CC3)n2)cc1` [Example 25i, 3-methyl-1-[4-[4-[(3S)-3-methylmorpholin-4-yl]-6-[1-[(4-methyl-1,3-thiazol-2-yl)sulfonyl]cyclopropyl]pyrimidin-2-yl]phenyl]urea], the half-maximal inhibitory concentration (IC50) was 1 nM.

In the case of `Cc1csc(S(=O)(=O)C2(c3cc(N4CCOC[C@@H]4C)nc(-c4ccc(NC(=O)Nc5ccc(C(F)(F)F)cc5)cc4)n3)CC2)n1` [Example 25j, 1-[4-[4-[(3S)-3-methylmorpholin-4-yl]-6-[1-[(4-methyl-1,3-thiazol-2-yl)sulfonyl]cyclopropyl]pyrimidin-2-yl]phenyl]-3-[4-(trifluoromethyl)phenyl]urea], the concentration for half-maximal inhibition (IC50) is 5.76 nM.

Take `Cc1csc(S(=O)(=O)C2(c3cc(N4CCOC[C@@H]4C)nc(-c4ccc(NC(=O)NC(C)(C)CO)cc4)n3)CC2)n1` [Example 25k, 3-(1-hydroxy-2-methylpropan-2-yl)-1-[4-[4-[(3S)-3-methylmorpholin-4-yl]-6-[1-[(4-methyl-1,3-thiazol-2-yl)sulfonyl]cyclopropyl]pyrimidin-2-yl]phenyl]urea]: the IC50 was found to be 2.92 nM.

Take `Cc1csc(S(=O)(=O)C2(c3cc(N4CCOC[C@@H]4C)nc(-c4ccc(NC(=O)NCCCO)cc4)n3)CC2)n1` [Example 25l, 3-(3-hydroxypropyl)-1-[4-[4-[(3S)-3-methylmorpholin-4-yl]-6-[1-[(4-methyl-1,3-thiazol-2-yl)sulfonyl]cyclopropyl]pyrimidin-2-yl]phenyl]urea]: the IC50 worked out at 0.956 nM.

Regarding `Cc1csc(S(=O)(=O)C2(c3cc(N4CCOC[C@@H]4C)nc(-c4ccc(NC(=O)Nc5cnn(C)c5)cc4)n3)CC2)n1` [Example 25m, 1-[4-[4-[(3S)-3-methylmorpholin-4-yl]-6-[1-[(4-methyl-1,3-thiazol-2-yl)sulfonyl]cyclopropyl]pyrimidin-2-yl]phenyl]-3-(1-methylpyrazol-4-yl)urea], the IC50 was 0.25 nM.

As for `C[C@H]1COCCN1c1cc(C2(S(=O)(=O)C3CCCCC3)CC2)nc(-c2ccc(NC(=O)NC3CC3)cc2)n1` [Example 26, 1-[4-[4-(1-Cyclohexylsulfonylcyclopropyl)-6-[(3S)-3-methylmorpholin-4-yl]pyrimidin-2-yl]phenyl]-3-cyclopropylurea], the IC50 turned out to be 6.05 nM.

With `C[C@H]1COCCN1c1cc(C2(S(=O)(=O)C3CCCCC3)CC2)nc(-c2ccc(NC(=O)NC3CCC3)cc2)n1` [Example 26a, 3-cyclobutyl-1-[4-[4-(1-cyclohexylsulfonylcyclopropyl)-6-[(3S)-3-methylmorpholin-4-yl]pyrimidin-2-yl]phenyl]urea], the concentration for half-maximal inhibition (IC50) came out at 6.72 nM.

Consider `CCNC(=O)Nc1ccc(-c2nc(N3CCOC[C@@H]3C)cc(C3(S(=O)(=O)C4CCCCC4)CC3)n2)cc1` [Example 26b, 3-[4-[4-(1-cyclohexylsulfonylcyclopropyl)-6-[(3S)-3-methylmorpholin-4-yl]pyrimidin-2-yl]phenyl]-1-ethylurea], for which the IC50 turned out to be 3.9 nM.

As to `C[C@H]1COCCN1c1cc(C2(S(=O)(=O)C3CCCCC3)CC2)nc(-c2ccc(NC(=O)NCCN(C)C)cc2)n1` [Example 26c, 1-[4-[4-(1-cyclohexylsulfonylcyclopropyl)-6-[(3S)-3-methylmorpholin-4-yl]pyrimidin-2-yl]phenyl]-3-(2-dimethylaminoethyl)urea], the IC50 amounted to 119 nM.

In the case of `C[C@H]1COCCN1c1cc(C2(S(=O)(=O)C3CCCCC3)CC2)nc(-c2ccc(NC(=O)NCCO)cc2)n1` [Example 26d, 1-[4-[4-(1-cyclohexylsulfonylcyclopropyl)-6-[(3S)-3-methylmorpholin-4-yl]pyrimidin-2-yl]phenyl]-3-(2-hydroxyethyl)urea], the IC50 came out at 1.2 nM.

As for `CNC(=O)Nc1ccc(-c2nc(N3CCOC[C@@H]3C)cc(C3(S(=O)(=O)C4CCCCC4)CC3)n2)cc1` [Example 26e, 1-[4-[4-(1-cyclohexylsulfonylcyclopropyl)-6-[(3S)-3-methylmorpholin-4-yl]pyrimidin-2-yl]phenyl]-3-methylurea], the IC50 turned out to be 3.95 nM.

Regarding `C[C@H]1COCCN1c1cc(C2(S(=O)(=O)C3CCCCC3)CC2)nc(-c2ccc(NC(=O)NC(C)(C)CO)cc2)n1` [Example 26f, 1-[4-[4-(1-cyclohexylsulfonylcyclopropyl)-6-[(3S)-3-methylmorpholin-4-yl]pyrimidin-2-yl]phenyl]-3-(1-hydroxy-2-methylpropan-2-yl)urea], the IC50 is 4.57 nM.

With `C[C@H]1COCCN1c1cc(C2(S(=O)(=O)C3CCCCC3)CC2)nc(-c2ccc(NC(=O)NCCCO)cc2)n1` [Example 26g, 1-[4-[4-(1-cyclohexylsulfonylcyclopropyl)-6-[(3S)-3-methylmorpholin-4-yl]pyrimidin-2-yl]phenyl]-3-(3-hydroxypropyl)urea], the IC50 is 7.46 nM.

In the case of `C[C@H]1COCCN1c1cc(C2(S(=O)(=O)C3CCCCC3)CC2)nc(-c2ccc(NC(=O)Nc3cnn(C)c3)cc2)n1` [Example 26h, 1-[4-[4-(1-cyclohexylsulfonylcyclopropyl)-6-[(3S)-3-methylmorpholin-4-yl]pyrimidin-2-yl]phenyl]-3-(1-methylpyrazol-4-yl)urea], the IC50 was found to be 4 nM.

As usually defined, the IC50 is the concentration that gives 50% inhibition.
